{"source": "patent US9844599B2", "about": "“Nitric oxide releasing produgs of therapeutic agents” (priority 2013, dated 2017)", "key": {"[1]": {"experiment": "Stability / release of aspirin and salicylic acid in human plasma", "type": "in vitro ADME", "conditions": "100 μM, FIG. 11", "procedure": "Human plasma was similarly obtained by processing the blood taken from healthy human male volunteers (age group 25-35 years) who had not consumed any NSAIDS one week prior to the collection of blood. This plasma was utilized for the in-vitro experiments.\n(§1) The solution of the test compound in acetonitrile (10 μL of […] solution) was dissolved in 990 μL of biological fluid (SGF/SIF/Human Plasma). The resulting reaction mixtures were incubated at 37° C. At specified time intervals, aliquots (60 μL) were withdrawn and added to acetonitrile (200 μL) and mixed well by vortexing for 2 minutes. The mixture was centrifuged at 13000 rpm for 15 min at 4° C., and the supernatant analyzed by HPLC. The amounts (area percentages) of the remaining intact prodrug (if any) and the released metabolite(s) were estimated by HPLC.\n(§2) This was performed by using HPLC instrument (Waters alliance), pump 2695, and PDA detector 2996 with the following chromatographic parameters: Wavelength −210 nm; Column-Waters X-Terra RP-18, 150×3.9 mm, 5 μm; Injection volume, 25 μL; Run time, 13 min. Mode of operation was linear gradient with mobile phase A: Acetonitrile and B: 0.1% TFA in water (filtered and degassed). Flow rate was 1.0 mL/min at 25° C."}, "[2]": {"experiment": "Acute gastric ulcerogenesis activity study", "conditions": "rats, acute oral; aspirin 100 mg/kg, I-D1-R1 298.85 mg/kg, naproxen 100 mg/kg, I-D2-R1 138.67 mg/kg", "quoted_text": "The animals were sacrificed after 5 h of drug administration. The stomachs of the treated animals were separated, perfused with 2% formalin (10 mL), and a large curvature was excised. The severity of the mucosal damage was assessed on the basis of the size of the observed ulcer lesions in the images captured using a stereomicroscope attached to a digital camera (Stemi 2000, Zeiss, Germany). The Image Pro Plus software (version 5.1) was used to quantify the hemorrhagic/ulcer lesions in pixels and to convert them into mm^2. The total area of lesions was calculated for each treatment group and the measure of gastric ulcers (Mean±SEM) (mm^2) was estimated (FIGS. 5 and 6)."}, "[3]": {"experiment": "Stability of prodrugs at RT and at 50° C. (capped vials)", "type": "physicochemical"}, "[4]": {"system": "serum thromboxane B2 (TXB2) formation", "experiment": "Inhibition of serum thromboxane B2 (TXB2) formation", "type": "in vivo, Sprague-Dawley (SD) rats", "conditions": "SD rats, 30 mg/kg aspirin or equimolar 44.82 mg/kg, p.o., o.d., 7 days", "procedure": "Aspirin is used as an antiplatelet agent for the treatment of cardiovascular complications. […] It is therefore possible to achieve complete suppression of platelet. TXA2 (and also TXB2) formation via chronic administration of aspirin at a dose of 30 mg/daily (Patrignani, P., et al. J. Clin. Invest. 1982, 69, 1366-1372). The antiplatelet activity of aspirin (30 mg/kg) and its prodrug I-D1-R1 (at a dose equimolar to 30 mg/kg dose of aspirin) was evaluated in Sprague-Dawley (SD) rats through estimation of serum TXB2 levels (Esser, R. et al., Br. J. Pharmacol. 2006, 144, 538-550) and the experimental results are presented in FIG. 7.\nIn vivo TXB2 inhibition potential of aspirin and NO-aspirin prodrugs was assessed in Sprague-Dawley (SD) rats; the serum TXB2 levels were estimated according to the reported procedure (R. Esser, R., et al., Br. J. Pharmacol. 2006, 144, 538-550). Thus, vehicle, aspirin (30 mg/kg) or aspirin prodrug I-D1-R1 (44.82 mg/kg which is equivalent to 30 mg/kg dose of aspirin) were administered orally to the overnight fasted SD rats. […] The serum TXB2 concentrations were determined by enzyme immunoassay (EIA) using commercially available TXB2 estimation kit (Cayman Chemicals, USA), according to the method described in kit information booklet."}, "[5]": {"experiment": "Stability / release of aspirin in Simulated Intestinal Fluid (SIF)", "type": "in vitro ADME", "conditions": "1 mM concentration", "procedure": "SIF was prepared according to the procedure described in Test Solution—USP. Thus, 0.68 g of monobasic potassium phosphate was dissolved in 25 mL of water followed by addition of 0.2N NaOH (7.7 mL) and water (50 mL). To this solution was added pancreatin (1 g) and mixed; the pH of the resulting solution was adjusted to about 6.8 with 0.2N HCl/0.2N NaOH and the solution, was diluted with water to 100 mL. The solution was utilized for in-vitro studies.\nas §1\nThis was performed by using HPLC instrument (Waters alliance), pump 2695, and PDA detector 2996 with the following chromatographic parameters: Wavelength −210 nm; Column-Waters X-Terra RP-18, 150×3.9 mm, 5 μm; Injection volume, 25 μL; Run time, 13 min. Mode of operation was linear gradient with mobile phase A: Acetonitrile and B: 0.1% TFA in water (filtered and degassed). […]"}, "[6]": {"experiment": "Stability of prodrugs / release of parent drug in Simulated Gastric Fluid (SGF)", "type": "in vitro ADME", "conditions": "for % of Prodrug remaining (μM): simulated gi fluid", "procedure": "SGF was prepared according to the procedure described in Test Solution—USP. Thus, 0.2 g of sodium chloride and 0.32 g of purified pepsin (Sigma, derived from porcine stomach mucosa with an activity of 800 to 2500 units per mg of protein) were dissolved in 0.7 mL of hydrochloric acid and sufficient water to make 100 mL. This test solution has a pH of about 1.2 and was utilized for in-vitro studies.\nas §1, §2"}}}
{"smiles": "CC(=O)Oc1ccccc1C(=O)OC(C)O[N+](=O)[O-]", "note": "(stereo not drawn) [I-D1-R1, 1-(nitrooxy)ethyl 2-acetoxybenzoate]", "values": [{"measurement": "Salicylic acid released in human plasma (in words)", "setting": "[1]", "result": "large and proportional amount"}, {"measurement": "Development of gastric ulcers or lesions", "setting": "[2]", "result": "none of the animals"}, {"measurement": "Asp (Aspirin) formed on storage", "setting": "[3]; 50° C., 0 h", "result": "NIL"}, {"measurement": "Prodrug (area %) on storage", "setting": "[3]; 50° C., 0 h", "result": 99.14, "unit": "%"}, {"measurement": "SA (Salicylic acid) formed on storage", "setting": "[3]; 50° C., 0 h", "result": "NIL"}, {"measurement": "Prodrug (area %) on storage", "setting": "[3]; 50° C., 1 m", "result": 88.34, "unit": "%"}, {"measurement": "SA (Salicylic acid) formed on storage", "setting": "[3]; 50° C., 1 m", "result": 0.6, "unit": "%"}, {"measurement": "Asp (Aspirin) formed on storage", "setting": "[3]; 50° C., 2 d", "result": "NIL"}, {"measurement": "Prodrug (area %) on storage", "setting": "[3]; 50° C., 2 d", "result": 98.84, "unit": "%"}, {"measurement": "SA (Salicylic acid) formed on storage", "setting": "[3]; 50° C., 2 d", "result": 0.1, "unit": "%"}, {"measurement": "Asp (Aspirin) formed on storage", "setting": "[3]; 50° C., 5 d", "result": 0.3, "unit": "%"}, {"measurement": "Prodrug (area %) on storage", "setting": "[3]; 50° C., 5 d", "result": 98.18, "unit": "%"}, {"measurement": "SA (Salicylic acid) formed on storage", "setting": "[3]; 50° C., 5 d", "result": 0.14, "unit": "%"}, {"measurement": "Degradation of prodrug on storage", "setting": "[3]; 50° C., after 1 month", "result": "about 11%"}, {"measurement": "Degradation of prodrug on storage", "setting": "[3]; 50° C., after 5 days", "result": "~1", "unit": "%"}, {"measurement": "Asp (Aspirin) formed on storage", "setting": "[3]; RT, 0 h", "result": "NIL"}, {"measurement": "Prodrug (area %) on storage", "setting": "[3]; RT, 0 h", "result": 99.14, "unit": "%"}, {"measurement": "SA (Salicylic acid) formed on storage", "setting": "[3]; RT, 0 h", "result": "NIL"}, {"measurement": "Asp (Aspirin) formed on storage", "setting": "[3]; RT, 1 m", "result": 0.13, "unit": "%"}, {"measurement": "Prodrug (area %) on storage", "setting": "[3]; RT, 1 m", "result": 98.56, "unit": "%"}, {"measurement": "SA (Salicylic acid) formed on storage", "setting": "[3]; RT, 1 m", "result": "NIL"}, {"measurement": "Asp (Aspirin) formed on storage", "setting": "[3]; RT, 3 d", "result": "NIL"}, {"measurement": "Prodrug (area %) on storage", "setting": "[3]; RT, 3 d", "result": 98.89, "unit": "%"}, {"measurement": "SA (Salicylic acid) formed on storage", "setting": "[3]; RT, 3 d", "result": "NIL"}, {"measurement": "Asp (Aspirin) formed on storage", "setting": "[3]; RT, 18 d", "result": "NIL"}, {"measurement": "Prodrug (area %) on storage", "setting": "[3]; RT, 18 d", "result": 98.95, "unit": "%"}, {"measurement": "SA (Salicylic acid) formed on storage", "setting": "[3]; RT, 18 d", "result": "NIL"}, {"measurement": "Stability on storage (in words)", "setting": "[3]; RT, up to 1 month", "result": "very stable"}, {"measurement": "Inhibition of TXB2 formation", "setting": "[4]", "result": 72.59, "unit": "%"}, {"measurement": "Release of aspirin in SIF (in words)", "setting": "[5]", "result": "released significant amount of aspirin"}, {"measurement": "Release of parent drug on incubation in SGF (in words)", "setting": "[6]", "result": "released quantitative amounts of the parent drug aspirin"}, {"measurement": "% of Aspirin Released (μM)", "setting": "[6]; 0 min, 1 µM, pH 1.2", "result": 0, "unit": "%"}, {"measurement": "AUC of aspirin (released / remaining) in SGF", "setting": "[6]; 1 µM, pH 1.2", "result": 10406, "unit": "µM·h"}, {"measurement": "Aspirin released in SGF, less than that of aspirin", "setting": "[6]; 1 µM, pH 1.2", "result": "about 15%"}, {"measurement": "% of Aspirin Released (μM)", "setting": "[6]; 5 min, 1 µM, pH 1.2", "result": 18, "unit": "%"}, {"measurement": "% of Aspirin Released (μM)", "setting": "[6]; 10 min, 1 µM, pH 1.2", "result": 44, "unit": "%"}, {"measurement": "% of Aspirin Released (μM)", "setting": "[6]; 30 min, 1 µM, pH 1.2", "result": 97, "unit": "%"}, {"measurement": "% of Aspirin Released (μM)", "setting": "[6]; 60 min, 1 µM, pH 1.2", "result": 100, "unit": "%"}, {"measurement": "% of Aspirin Released (μM)", "setting": "[6]; 120 min, 1 µM, pH 1.2", "result": 100, "unit": "%"}, {"measurement": "% of Prodrug remaining (μM)", "setting": "[6]; 0 h, 1 µM, pH 1.2", "result": 91, "unit": "%"}, {"measurement": "% of Prodrug remaining (μM)", "setting": "[6]; 5 min, 1 µM, pH 1.2", "result": 82, "unit": "%"}, {"measurement": "% of Prodrug remaining (μM)", "setting": "[6]; 10 min, 1 µM, pH 1.2", "result": 56, "unit": "%"}, {"measurement": "% of Prodrug remaining (μM)", "setting": "[6]; 0.5 h, 1 µM, pH 1.2", "result": 3, "unit": "%"}, {"measurement": "% of Prodrug remaining (μM)", "setting": "[6]; 1 h, 1 µM, pH 1.2", "result": 0, "unit": "%"}, {"measurement": "% of Prodrug remaining (μM)", "setting": "[6]; 2 h, 1 µM, pH 1.2", "result": 0, "unit": "%"}]}
